For the experiment, the target named is Bet BRD4 full length bromo-domain protein (Homo sapiens, UniProt O60885). Briefly: Bet bromodomain TR-FRET assay (displacement of acetyl histone peptide). The class given is binding. The note with it: Bet BRD4 full length bromodomain protein, 300 nM acetyl histone peptide substrate, read-out: IC50. (In general: In TR-FRET formats the signal depends on donor and acceptor labels being close together.)

Take `CN1CCCC(Nc2cc(NS(=O)(=O)c3ccc(F)cc3F)cc3c2NC(=O)C32CCC2)C1` (single isomer, unassigned) [Compound 34, 2,4-Difluoro-N-(7′-((1-methylpiperidin-3-yl)amino)-2′-oxospiro[cyclobutane-1,3′-indolin]-5′-yl)benzenesulfonamide]: the IC50 – broadly, the midpoint of a concentration-inhibition curve – is less than 600 nM.

Take `CN1CCCC(Nc2cc(NS(=O)(=O)c3ccc(F)cc3F)cc3c2NC(=O)C32CCC2)C1` (single isomer, unassigned) [Compound 35, 2,4-Difluoro-N-(7′-((1-methylpiperidin-3-yl)amino)-2′-oxospiro[cyclobutane-1,3′-indolin]-5′-yl)benzenesulfonamide]: the IC50 was 600 to 1000 nM.

As for `O=C(NC1CCCNC1)c1cc(NS(=O)(=O)c2ccc(F)cc2F)cc2c1NC(=O)C21CCC1` (single isomer, unassigned) [Compound 67, 5′-(2,4-Difluorophenylsulfonamido)-2′-oxo-N-(piperidin-3-yl)spiro[cyclobutane-1,3′-indoline]-7′-carboxamide], the IC50 lay within 600 to 1000 nM.

As for `O=C(NC1CCCNC1)c1cc(NS(=O)(=O)c2ccc(F)cc2F)cc2c1NC(=O)C21CCC1` (single isomer, unassigned) [Compound 68, 5′-(2,4-Difluorophenylsulfonamido)-2′-oxo-N-(piperidin-3-yl)spiro[cyclobutane-1,3′-indoline]-7′-carboxamide], the IC50 was less than 600 nM.

With `COc1ccccc1S(=O)(=O)Nc1cc(C(C)c2ccccc2)c2c(c1)C1(CCC1)C(=O)N2` (single isomer, unassigned) [Compound 114, 2-Methoxy-N-(2′-oxo-7′-(1-phenylethyl)spiro [cyclobutane-1,3′-indolin]-5′-yl)benzenesulfonamide], the IC50 was less than 600 nM.

With `COc1ccccc1S(=O)(=O)Nc1cc(C(C)c2ccccc2)c2c(c1)C1(CCC1)C(=O)N2` (single isomer, unassigned) [Compound 115, 2-Methoxy-N-(2′-oxo-7′-(1-phenylethyl)spiro [cyclobutane-1,3′-indolin]-5′-yl)benzenesulfonamide], the IC50 fell in the range of 600 to 1000 nM.

For `COc1ccccc1S(=O)(=O)Nc1cc(OC(C)c2ccccn2)c2c(c1)C1(CCC1)C(=O)N2` (single isomer, unassigned) [Compound 150, 2-Methoxy-N-(2′-oxo-7′-(1-(pyridin-2-yl)ethoxy)spiro[cyclobutane-1,3′-indolin]-5′-yl)benzenesulfonamide], the IC50 is 600 to 1000 nM.

On to `COc1ccccc1S(=O)(=O)Nc1cc(OC(C)c2ccccn2)c2c(c1)C1(CCC1)C(=O)N2` (single isomer, unassigned) [Compound 151, 2-Methoxy-N-(2′-oxo-7′-(1-(pyridin-2-yl)ethoxy)spiro[cyclobutane-1,3′-indolin]-5′-yl)benzenesulfonamide], for which the half-maximal inhibitory concentration (IC50) was less than 600 nM.

Regarding `COc1ccccc1S(=O)(=O)Nc1cc(OC(C)c2cccnc2)c2c(c1)C1(CCC1)C(=O)N2` (single isomer, unassigned) [Compound 152, 2-methoxy-N-(2′-oxo-7′-(1-(pyridin-3-yl)ethoxy)spiro[cyclobutane-1,3′-indolin]-5′-yl)benzenesulfonamide], the IC50 is less than 600 nM.

For the compound `CC(Oc1cc(NS(=O)(=O)c2ccc(Cl)cc2F)cc2c1NC(=O)C21CCC1)c1ccccn1` (single isomer, unassigned) [Compound 155, 4-Chloro-2-fluoro-N-(2′-oxo-7′-(1-(pyridin-2-yl)ethoxy)spiro[cyclobutane-1,3′-indolin]-5′-yl)benzenesulfonamide], the IC50 was in the range of 600 to 1000 nM.

With `CC(Oc1cc(NS(=O)(=O)c2ccc(Cl)cc2F)cc2c1NC(=O)C21CCC1)c1ccccn1` (single isomer, unassigned) [Compound 156, 4-Chloro-2-fluoro-N-(2′-oxo-7′-(1-(pyridin-2-yl)ethoxy)spiro[cyclobutane-1,3′-indolin]-5′-yl)benzenesulfonamide], the IC50 was less than 600 nM.

Regarding `COc1ccccc1S(=O)(=O)Nc1cc(C(C)C2CCCN(C)C2)c2c(c1)C1(CCC1)C(=O)N2` (single isomer, unassigned) [Compound 173, 2-Methoxy-N-(7′-(1-(1-methylpiperidin-3-yl)ethyl)-2′-oxospiro[cyclobutane-1,3′-indolin]-5′-yl)benzenesulfonamide], the IC50 is more than 1000 nM.

For `COc1ccccc1S(=O)(=O)Nc1cc(OC2CCN(C)CC2F)c2c(c1)C1(CCC1)C(=O)N2` (single isomer, unassigned) [compound 191, N-(7′-((3-fluoro-1-methylpiperidin-4-yl)oxy)-2′-oxospiro[cyclobutane-1,3′-indolin]-5′-yl)-2-methoxybenzenesulfonamide], the IC50 is less than 600 nM.

For `O=C1Nc2c(-c3cccc(O)c3)cc(NS(=O)(=O)c3ccc(F)cc3F)cc2C12CCC2` [Compound 1, 2,4-difluoro-N-(7′-(3-hydroxyphenyl)-2′-oxospiro[cyclobutane-1,3′-indolin]-5′-yl)benzenesulfonamide], the IC50 is less than 600 nM.

Turning to `COc1cc(-c2cc(NS(=O)(=O)c3ccc(F)cc3F)cc3c2NC(=O)C32CCC2)ccn1` [Compound 2, 2,4-Difluoro-N-(7′-(2-methoxypyridin-4-yl)-2′-oxospiro [cyclobutane-1,3′-indolin]-5′-yl)benzenesulfonamide], the IC50 was in the range of 600 to 1000 nM.

As to `COc1ccc(-c2cc(NS(=O)(=O)c3ccc(F)cc3F)cc3c2NC(=O)C32CCC2)cn1` [Compound 3, 2,4-Difluoro-N-(7′-(6-methoxypyridin-3-yl)-2′-oxospiro [cyclobutane-1,3′-indolin]-5′-yl)benzenesulfonamide], the IC50 fell in the range of 600 to 1000 nM.

Regarding `O=C1NCCc2ccc(-c3cc(NS(=O)(=O)c4ccc(F)cc4F)cc4c3NC(=O)C43CCC3)cc21` [Compound 4, 2,4-Difluoro-N-(2′-oxo-7′-(1-oxo-1,2,3,4-tetrahydroisoquinolin-7-yl)spiro[cyclobutane-1,3′-indolin]-5′-yl)benzenesulfonamide], the IC50 is less than 600 nM.

`Cn1cnc2ccc(-c3cc(NS(=O)(=O)c4ccc(F)cc4F)cc4c3NC(=O)C43CCC3)cc21` [Compound 5, 2,4-Difluoro-N-(7′-(1-methyl-1H-benzo[d]imidazol-6-yl)-2′-oxospiro[cyclobutane-1,3′-indolin]-5′-yl)benzene sulphonamide]: the IC50 is less than 600 nM.

On to `CN1CCc2ccc(-c3cc(NS(=O)(=O)c4ccc(F)cc4F)cc4c3NC(=O)C43CCC3)cc2C1=O` [Compound 6, 2,4-Difluoro-N-(7′-(2-methyl-1-oxo-1,2,3,4-tetrahydroisoquinolin-7-yl)-2′-oxospiro[cyclobutane-1,3′-indolin]-5′-yl)benzenesulfonamide], for which the IC50 lay in the range of 600 to 1000 nM.

Regarding `O=C1Nc2c(-c3ccc4cn[nH]c4c3)cc(NS(=O)(=O)c3ccc(F)cc3F)cc2C12CCC2` [Compound 7, N-(7′-(1H-indazol-6-yl)-2′-oxospiro[cyclobutane-1,3′-indolin]-5′-yl)-2,4-difluorobenzenesulfonamide], the IC50 fell in the range of 600 to 1000 nM.

For the compound `O=C1Nc2c(-c3ccc4nc[nH]c4c3)cc(NS(=O)(=O)c3ccc(F)cc3F)cc2C12CCC2` [Compound 8, N-(7′-(1H-benzo[d]imidazol-6-yl)-2′-oxospiro[cyclobutane-1,3′-indolin]-5′-yl)-2,4-difluorobenzenesulfonamide], the IC50 fell in the range of 600 to 1000 nM.
